Assay: logP (pH2.3), physical properties of Tables 1 to 3
Assay type: physicochemical
Conditions: for Physical properties: logP: Table 1
Excerpt: However, the present invention is not limited to these compounds. In the tables, the term “physical properties” means a melting point or logp. The symbol “Me” represents a methyl group, “Et” represents an ethyl group, “Pr” represents a propyl group, “-n” represents normal, and “-i” represents iso.

Compound | Physical properties logP(pH2.3) | Physical properties: logP
CCC(C[S+](C)[O-])NC(=O)c1c(Cl)cccc1C(=O)Nc1ccc(C(F)(C(F)(F)F)C(F)(F)F)cc1C (mixture of isomers) [Compound 1-340] | 2.78 | 
CCSC[C@H](C)NC(=O)c1c(I)cccc1C(=O)Nc1ccc(C(F)(C(F)(F)F)C(F)(F)F)c(F)c1C [Compound 1-105] |  | 4.71
CC[S+]([O-])C[C@H](C)NC(=O)c1c(I)cccc1C(=O)Nc1ccc(C(F)(C(F)(F)F)C(F)(F)F)c(F)c1C (stereo partly shown) [Compound 1-106] |  | 2.97
CCS(=O)(=O)C[C@H](C)NC(=O)c1c(I)cccc1C(=O)Nc1ccc(C(F)(C(F)(F)F)C(F)(F)F)c(F)c1C [Compound 1-107] |  | 3.47
CCSC[C@H](C)NC(=O)c1c(I)cccc1C(=O)Nc1ccc(C(F)(F)C(F)(F)F)c(F)c1C [Compound 1-108] |  | 4.36
CCS(=O)(=O)C[C@H](C)NC(=O)c1c(I)cccc1C(=O)Nc1ccc(C(F)(F)C(F)(F)F)c(F)c1C [Compound 1-110] |  | 3.15
CCSC[C@H](C)NC(=O)c1c(I)cccc1C(=O)Nc1ccc(C(F)(F)C(F)(F)F)c(Cl)c1C [Compound 1-111] |  | 4.53
CCSC[C@H](C)NC(=O)c1c(I)cccc1C(=O)Nc1cc(F)c(OC(F)(F)F)cc1Br [Compound 1-114] |  | 4.28
CCS(=O)(=O)C[C@H](C)NC(=O)c1c(I)cccc1C(=O)Nc1cc(F)c(OC(F)(F)F)cc1Br [Compound 1-116] |  | 3.09
CCSC[C@H](C)NC(=O)c1c(I)cccc1C(=O)Nc1cc(F)c(OC(F)(F)F)cc1Cl [Compound 1-117] |  | 4.26
CCS(=O)(=O)C[C@H](C)NC(=O)c1c(I)cccc1C(=O)Nc1cc(F)c(OC(F)(F)F)cc1Cl [Compound 1-119] |  | 3.07
CCSC[C@H](C)NC(=O)c1c(I)cccc1C(=O)Nc1ccc(Br)c(F)c1C [Compound 1-120] |  | 3.65
CCS(=O)(=O)C[C@H](C)NC(=O)c1c(I)cccc1C(=O)Nc1ccc(Br)c(F)c1C [Compound 1-122] |  | 2.49
CCSC[C@H](C)NC(=O)c1c(I)cccc1C(=O)Nc1ccc(OC(F)(F)F)c(F)c1C [Compound 1-123] |  | 3.90
CCS(=O)(=O)C[C@H](C)NC(=O)c1c(I)cccc1C(=O)Nc1ccc(OC(F)(F)F)c(F)c1C [Compound 1-125] |  | 2.77
CCSC[C@H](C)NC(=O)c1c(I)cccc1C(=O)Nc1ccc(C(F)(F)F)c(F)c1C [Compound 1-126] |  | 3.90
CCS(=O)(=O)C[C@H](C)NC(=O)c1c(I)cccc1C(=O)Nc1ccc(C(F)(F)F)c(F)c1C [Compound 1-128] |  | 2.74
CCSC[C@H](C)NC(=O)c1c(I)cccc1C(=O)Nc1ccc(Br)c(Br)c1C [Compound 1-129] |  | 3.89
CCS(=O)(=O)C[C@H](C)NC(=O)c1c(I)cccc1C(=O)Nc1ccc(Br)c(Br)c1C [Compound 1-131] |  | 2.67
CCSC[C@H](C)NC(=O)c1c(I)cccc1C(=O)Nc1ccc(I)c(F)c1C [Compound 1-132] |  | 3.77
CCS(=O)(=O)C[C@H](C)NC(=O)c1c(I)cccc1C(=O)Nc1ccc(I)c(F)c1C [Compound 1-134] |  | 2.59
CSC[C@H](C)NC(=O)c1c(I)cccc1C(=O)Nc1ccc(C(F)(F)C(F)(F)F)c(F)c1C [Compound 1-135] |  | 4.03
Cc1c(NC(=O)c2cccc(I)c2C(=O)N[C@@H](C)C[S+](C)[O-])ccc(C(F)(F)C(F)(F)F)c1F (stereo partly shown) [Compound 1-136] |  | 2.50

Compound | Physical properties logP(pH2.3) | Physical properties: logP
Cc1c(NC(=O)c2cccc(I)c2C(=O)N[C@@H](C)CS(C)(=O)=O)ccc(C(F)(F)C(F)(F)F)c1F [Compound 1-137] |  | 2.97
CSC[C@H](C)NC(=O)c1c(I)cccc1C(=O)Nc1ccc(OC(F)(F)F)c(F)c1C [Compound 1-138] |  | 3.59
Cc1c(NC(=O)c2cccc(I)c2C(=O)N[C@@H](C)CS(C)(=O)=O)ccc(OC(F)(F)F)c1F [Compound 1-140] |  | 2.60
CSC[C@H](C)NC(=O)c1c(I)cccc1C(=O)Nc1ccc(C(F)(C(F)(F)F)C(F)(F)F)c(F)c1C [Compound 1-141] |  | 4.41
Cc1c(NC(=O)c2cccc(I)c2C(=O)N[C@@H](C)C[S+](C)[O-])ccc(C(F)(C(F)(F)F)C(F)(F)F)c1F (stereo partly shown) [Compound 1-142] |  | 2.78
Cc1c(NC(=O)c2cccc(I)c2C(=O)N[C@@H](C)CS(C)(=O)=O)ccc(C(F)(C(F)(F)F)C(F)(F)F)c1F [Compound 1-143] |  | 3.27
CSC[C@H](C)NC(=O)c1c(I)cccc1C(=O)Nc1ccc(C(F)(F)C(F)(F)F)c(Cl)c1C [Compound 1-144] |  | 4.20
CSC[C@H](C)NC(=O)c1c(I)cccc1C(=O)Nc1ccc(Br)c(F)c1C [Compound 1-147] |  | 3.30
Cc1c(NC(=O)c2cccc(I)c2C(=O)N[C@@H](C)CS(C)(=O)=O)ccc(Br)c1F [Compound 1-149] |  | 2.29
CSC[C@H](C)NC(=O)c1c(I)cccc1C(=O)Nc1ccc(I)c(F)c1C [Compound 1-150] |  | 3.42
Cc1c(NC(=O)c2cccc(I)c2C(=O)N[C@@H](C)CS(C)(=O)=O)ccc(I)c1F [Compound 1-152] |  | 2.40
CSC[C@H](C)NC(=O)c1c(I)cccc1C(=O)Nc1ccc(Br)c(Br)c1C [Compound 1-153] |  | 3.55
Cc1c(NC(=O)c2cccc(I)c2C(=O)N[C@@H](C)CS(C)(=O)=O)ccc(Br)c1Br [Compound 1-155] |  | 2.49
CSC[C@H](C)NC(=O)c1c(I)cccc1C(=O)Nc1ccc(C(F)(F)F)c(F)c1C [Compound 1-156] |  | 3.58
CCSC[C@H](C)NC(=O)c1c(I)cccc1C(=O)Nc1ccc(OC(F)(F)F)c(Cl)c1Cl [Compound 1-159] |  | 4.41
CCS(=O)(=O)C[C@H](C)NC(=O)c1c(I)cccc1C(=O)Nc1ccc(OC(F)(F)F)c(Cl)c1Cl [Compound 1-161] |  | 3.18
CCSC[C@H](C)NC(=O)c1c(I)cccc1C(=O)Nc1ccc(OC(F)(F)F)c(Br)c1Cl [Compound 1-162] |  | 4.42
CCS(=O)(=O)C[C@H](C)NC(=O)c1c(I)cccc1C(=O)Nc1ccc(OC(F)(F)F)c(Br)c1Cl [Compound 1-164] |  | 3.19
CSC[C@H](C)NC(=O)c1c(Br)cccc1C(=O)Nc1ccc(C(F)(F)C(F)(F)F)c(F)c1C [Compound 1-165] |  | 3.93
Cc1c(NC(=O)c2cccc(Br)c2C(=O)N[C@@H](C)C[S+](C)[O-])ccc(C(F)(F)C(F)(F)F)c1F (stereo partly shown) [Compound 1-166] |  | 2.42
Cc1c(NC(=O)c2cccc(Br)c2C(=O)N[C@@H](C)CS(C)(=O)=O)ccc(C(F)(F)C(F)(F)F)c1F [Compound 1-167] |  | 2.86
CSC[C@H](C)NC(=O)c1c(Br)cccc1C(=O)Nc1ccc(C(F)(C(F)(F)F)C(F)(F)F)c(F)c1C [Compound 1-168] |  | 4.31
Cc1c(NC(=O)c2cccc(Br)c2C(=O)N[C@@H](C)C[S+](C)[O-])ccc(C(F)(C(F)(F)F)C(F)(F)F)c1F (stereo partly shown) [Compound 1-169] |  | 2.72
